In patent US5834521A, “Substituted dibenz (A F)azulenes and methods of preparation” (Ortho Pharmaceutical Corporation, priority 1996, dated 1998):

Target: T1, Progestin Receptor (Oryctolagus cuniculus, UniProt P06186)
T1 construct: The high speed supernatant fraction was used as the receptor preparation; from tissue; host or cells: uterus of New Zealand rabbits, 200,000×g supernatant (cytosol)
T1 sequence (P06186 1-930): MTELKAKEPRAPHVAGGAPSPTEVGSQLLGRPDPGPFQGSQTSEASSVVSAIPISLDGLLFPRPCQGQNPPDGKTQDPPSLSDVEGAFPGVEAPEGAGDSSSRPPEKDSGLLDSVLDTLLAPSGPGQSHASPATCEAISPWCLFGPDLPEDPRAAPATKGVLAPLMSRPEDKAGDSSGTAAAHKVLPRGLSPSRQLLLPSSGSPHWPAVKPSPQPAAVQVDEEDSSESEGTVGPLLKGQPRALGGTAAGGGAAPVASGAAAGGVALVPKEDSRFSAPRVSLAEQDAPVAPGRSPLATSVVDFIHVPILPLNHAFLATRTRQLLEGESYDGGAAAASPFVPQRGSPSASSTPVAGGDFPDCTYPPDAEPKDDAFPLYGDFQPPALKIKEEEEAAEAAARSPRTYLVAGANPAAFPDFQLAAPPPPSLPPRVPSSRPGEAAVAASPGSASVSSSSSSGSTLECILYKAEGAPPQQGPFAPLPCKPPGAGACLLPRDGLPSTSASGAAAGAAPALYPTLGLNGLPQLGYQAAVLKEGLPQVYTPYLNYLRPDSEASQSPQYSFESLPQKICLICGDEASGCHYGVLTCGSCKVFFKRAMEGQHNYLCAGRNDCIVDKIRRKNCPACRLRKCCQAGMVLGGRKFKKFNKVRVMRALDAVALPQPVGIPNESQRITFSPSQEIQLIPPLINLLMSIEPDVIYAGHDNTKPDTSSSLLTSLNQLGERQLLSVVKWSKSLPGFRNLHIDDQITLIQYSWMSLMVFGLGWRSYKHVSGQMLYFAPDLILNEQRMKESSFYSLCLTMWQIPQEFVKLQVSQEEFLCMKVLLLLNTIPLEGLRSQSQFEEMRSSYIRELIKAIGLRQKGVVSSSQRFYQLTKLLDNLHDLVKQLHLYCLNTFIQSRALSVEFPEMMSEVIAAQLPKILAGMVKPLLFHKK
Test: Progestin Receptor Binding (competitive binding, 3H-promegestone, rabbit uterus receptor preparation)
Design: species or system New Zealand rabbits
Conditions: 3H-promegestone displacement, 4° C., 18 h
Protocol: Progestin Receptor Binding
The procedure used was essentially that of J. L. McGuire, C.
Uteri from New Zealand rabbits (1.5 to 2.5 kg) were placed in a cold buffer A (0.01 mol Tris-HCl, pH 8.0, 0.001 mol EDTA, 0.25 mol sucrose). The uteri were minced, washed and homogenized in cold buffer A. The homogenate (2 g wet tissue/mL buffer) was centrifuged at 200,000×g for 1 h at 4° C. The high speed supernatant fraction was used as the receptor preparation.
A competitive binding assay was performed by mixing 3H-promegestone with the receptor preparation and adding a known amount of unlabeled compound. This mixture was incubated at 4° C. for 18 h. The compounds bound to the receptor were separated from those which were free in solution using dextran coated charcoal and the amount of isotope bound to the receptor was determined by scintillation counting. The extent of the compound's interaction with the receptor is measured as the percent reduction in the total isotope bound caused by the unlabeled test compound as compared to the control levels. The receptor screen consists of measuring the reduction in the total isotope bound caused by the unlabeled test compound at […] final concentrations.

IC50 | Compound
118 nM | COc1cccc2c1[C@H](C)C[C@@H]1c3ccccc3C[C@]1(C)C2 (relative stereo) [Compound 54]
37 nM | CC1CC2c3ccc(F)cc3CC2(C)Cc2ccccc21 (stereo not drawn) [Compound 69, 6,11a-Dimethyl-2-fluoro-4b,5,6,11,11a,12-hexahydrodibenz[a,f]azulene]
212 nM | COc1ccc2c(c1)CC1(C)Cc3ccccc3C1C(=O)C2C (stereo not drawn) [Compound 14, 6,11a-Dimethyl-9-methoxy-5-oxo-4b,5,6,11,11a,12-hexahydrodibenz[a,f]azulene]
676 nM | C=C1C=C2c3ccccc3CC2(C)Cc2cc(OC)ccc21 (stereo not drawn) [Compound 105, 6,11,11a,12-Tetrahydro-6-methenyl-9-methoxy-11a-methyldibenz[a,f]azulene]
34 nM | CCCC12Cc3cc(F)ccc3C1=CCc1c(cccc1OC)C2 (stereo not drawn) [Compound 56]
678 nM | COc1ccc2c(c1)CC1(C)Cc3ccccc3C1CC2C (stereo not drawn) [Compound 107, 4b,5,6,11,11a,12-Hexahydro-9-methoxy-6,11a-dimethyldibenz-[a,f]azulene]
42 nM | CCCC12Cc3cc(OC(C)=O)ccc3CCC1c1ccccc1C2 (stereo not drawn) [Compound 50]
9 nM | COc1cc2c(cc1[N+](=O)[O-])C(C)CC1c3ccc(F)cc3CC1(C)C2 (stereo not drawn) [Compound 65, 6,11a-Dimethyl-2-fluoro-8-nitro-9-methoxy-4b,5,6,11,11a,12-hexahydrodibenz[a,f]azulene 1/4 Hydrate]
34 nM | CC12Cc3ccccc3C1CCc1c(N)cccc1C2 (stereo not drawn) [Compound 96]
668 nM | COc1ccc2c(c1)CC1(C)Cc3cc(OC)ccc3C1C(O)C2C (stereo not drawn) [Compound 19]
40 nM | COc1ccc2c(c1)C[C@@]1(C)Cc3ccccc3C1=C[C@H]2C (relative stereo) [Compound 3]
190 nM | COc1cc2c(cc1C(C)=O)[C@H](C)C=C1c3ccccc3C[C@]1(C)C2 (relative stereo) [Compound 44]
1970 nM | CC(=O)Nc1ccc2c(c1)CC1(C)Cc3ccccc3C1=CC2C (stereo not drawn) [Compound 83, 9-Acetamido-6,11,11a,12-tetrahydro-6,11a-dimethyldibenz[a,f]azulene]
1670 nM | COc1cc2c(c(OC)c1)[C@H](C)C[C@@H]1c3ccccc3C[C@]1(C)C2 (relative stereo) [Compound 86]
105 nM | COc1ccc2c(c1)CC1(C)Cc3ccccc3C1=CC2C (stereo not drawn) [Compound 106, 6,11,11a,12-Tetrahydro-9-methoxy-6,11a-dimethyldibenz[a,f]-azulene]
139 nM | CCC[C@]12Cc3ccccc3C1=C[C@@H](C)c1ccc(Br)cc1C2 (relative stereo) [Compound 92]
2600 nM | CCC12Cc3cc(OC)ccc3CC=C1c1ccc(OC)cc1C2 (stereo not drawn) [Compound 37]
337 nM | COc1ccc2c(c1)C[C@@]1(C)Cc3ccccc3[C@H]1[C@H](O)[C@H]2C (relative stereo) [Compound 13, 6,11a-Dimethyl-5-hydroxy-9-methoxy-4b,5,6,11,11a,12-hexahydrodibenz[a,f]azulene (α--OH)]
239 nM | COc1ccc2c(c1)CC1(C)Cc3ccccc3C1=CC2 (stereo not drawn) [Compound 2, 9-Methoxy-11a-methyl-6,11,11a,12-tetrahydrodibenz[a,f]azulene]
32 nM | CC1CC2c3ccccc3CC2(C)Cc2ccccc21 (stereo not drawn) [Compound 28, 6,11a,-Dimethyl-4b,5,6,11,11a,12-hexahydrodibenz[a,f]azulene]
439 nM | CCC[C@@]12Cc3cc(OC)ccc3CC[C@@H]1c1ccc(OC)cc1C2 (relative stereo) [Compound 71]

IC50 | Compound
729 nM | CC(=O)Oc1cc2c(c(OC(C)=O)c1)[C@H](C)C[C@@H]1c3ccccc3C[C@]1(C)C2 (relative stereo) [Compound 87]
100 nM | CCC[C@@]12Cc3cc(OC)ccc3CC[C@@H]1c1ccc(F)cc1C2 (relative stereo) [Compound 72]
121 nM | COc1cc2c(cc1[N+](=O)[O-])C(C)C(O)C1c3ccccc3CC1(C)C2 (stereo not drawn) [Compound 25, 6,11a-Dimethyl-5-hydroxy-9-methoxy-8-nitro-4b,5,6,11,11a,12-hexahydrodibenz[a,f]azulene]
456 nM | C[C@@H]1CC2c3ccccc3C[C@]2(C)Cc2cc(O)ccc21 (stereo partly drawn) [Compound 12]
1470 nM | COc1cc2c(cc1[N+](=O)[O-])C(C)CC1c3ccccc3CC1(C)C2 (stereo not drawn) [Compound 102, 4b,5,6,11,11a,12-Hexahydro-9-methoxy-6,11a-dimethyl-8-nitro-dibenz[a,f]azulene]
1770 nM | CC(=O)Nc1ccc2c(c1)CC1(C)Cc3ccccc3C1=CC2 (stereo not drawn) [Compound 95]
419 nM | CC[C@]12Cc3ccccc3C1C[C@@H](C)c1ccc(OC)cc1C2 (stereo partly drawn) [Compound 23]
29 nM | CC(=O)Oc1cccc2c1CCC1c3ccccc3CC1(C)C2 (stereo not drawn) [Compound 108]
115 nM | CC(=O)Nc1cc2c(cc1[N+](=O)[O-])C(C)CC1c3ccccc3CC1(C)C2 (stereo not drawn) [Compound 91]
137 nM | CC1CC2c3ccccc3CC2(C)Cc2cc(N)ccc21 (stereo not drawn) [Compound 89, 9-Amino-6,11a-dimethyl-4b,5,6,11,11a,12-hexahydrodibenz[a,f]azulene]
67 nM | CCCC12Cc3cc(OC)ccc3CC=C1c1ccc(F)cc1C2 (stereo not drawn) [Compound 57]
15 nM | CCCC12Cc3ccccc3C1=CCc1c(cccc1OC)C2 (stereo not drawn) [Compound 29]
476 nM | COc1ccc2c(c1)C[C@@]1(C)Cc3ccccc3[C@H]1C[C@H]2C (relative stereo) [Compound 8]
133 nM | CCCC12Cc3cc(OC)ccc3CCC1c1ccccc1C2 (stereo not drawn) [Compound 35]
258 nM | CC1c2cc([N+](=O)[O-])c(O)cc2CC2(C)Cc3ccccc3C2C1O (stereo not drawn) [Compound 24, 6,11a-Dimethyl-5,9-dihydroxy-8-nitro-4b,5,6,11,11a,12-hexahydrodibenz[a,f]azulene]
68 nM | CCC12Cc3ccccc3C1=CCc1c(cccc1OC)C2 (stereo not drawn) [Compound 52]
1680 nM | COc1ccc2c(c1)C[C@@]1(C)Cc3ccccc3C1[C@@H](O)[C@H]2C (relative stereo) [Compound 64, 6,11a-Dimethyl-5-hydroxy-9-methoxy-4b,5,6,11,11a,12-hexahydrodibenz[a,f]azulene (β-OH)]
353 nM | COc1ccc2c(c1)C[C@@]1(C)Cc3ccccc3[C@@H]1C[C@H]2C (relative stereo) [Compound 16]
185 nM | CCCCC12Cc3cc(OC)ccc3CC=C1c1ccccc1C2 (stereo not drawn) [Compound 67]
143 nM | COc1cccc2c1CC=C1c3ccccc3CC1(C)C2 (stereo not drawn) [Compound 1, 7-Methoxy-11a-methyl-6,11,11a,12-tetrahydrodibenz[a,f]azulene]
555 nM | COc1ccc2c(c1)CC1(C)Cc3cc(OC)ccc3C1C(=O)C2 (stereo not drawn) [Compound 75]

Compound | IC50
CCCC12Cc3cc(O)ccc3CCC1c1ccccc1C2 (stereo not drawn) [Compound 40] | 51 nM
6,11,11a,12-Tetrahydro-8-carboxy-9-methoxy-6,11a-dimethyldibenz[a,f]azulene [Compound 80] | 10000 nM
CC1CC2c3ccccc3CC2(C)Cc2c1cc([N+](=O)[O-])c(O)c2[N+](=O)[O-] (stereo not drawn) [Compound 101, 4b,5,6,11,11a,12-Hexahydro-9-hydroxy-6,11a-dimethyl-8,10-dinitrodibenz[a,f]azulene] | 621 nM
COc1ccc2c(c1[N+](=O)[O-])CC1(C)Cc3ccccc3C1C(O[N+](=O)[O-])C2C (stereo not drawn) [Compound 82, 5-(6,11a-Dimethyl-9-methoxy-10-nitro-4b-5,6,11,11a,12-hexahydro)dibenz[a,f]azulenyl nitrate ester] | 99 nM
CCOP(=O)(OCC)Oc1ccc2c(c1)CC1(C)Cc3cc(F)ccc3C1CC2C (stereo not drawn) [Compound 49, 9-(2-Fluoro-6,11,11a,12-tetrahydro-6,11a-dimethyl)-dibenz[a,f]azulenyl diethyl phosphoric acid] | 72 nM
CCCC12Cc3cc(OC)ccc3C(C)CC1c1ccccc1C2 (stereo not drawn) [Compound 48] | 182 nM
